Assay results as given in PMC6272185 (Molecules, 2015).
Converted amounts (≈) assume the structure as drawn. Where two headings read alike, the source gives them in different places.

Assays:
[1] = test system: NO production by LPS-stimulated RAW 264.7 macrophages; assay: Inhibition of NO production by LPS-stimulated macrophages (Griess); type: cell-based, murine; details: mean ± SD, n = 3
[2] = test system: TNF-α production by LPS-stimulated RAW 264.7 macrophages; assay: Inhibition of TNF-α production by LPS-stimulated macrophages (ELISA); type: cell-based, murine; details: for IC50: Mus musculus, read-out: IC50 TNF-α; for inhibition of TNF-α: LPS-stimulated RAW 264.7
[3] = Macrophage cytotoxicity, LDH release assay; type: cell-based, murine; details: mouse, RAW 264.7 macrophages stimulated with LPS; LPS-stimulated RAW 264.7, LDH release; mean ± SD, n = 3
[4] = test system: M. bovis BCG; assay: microbe, parasite or virus in culture; type: cell-based, Mycobacterium bovis BCG; details: for MIC50 / MIC90: Mycobacterium tuberculosis variant bovis BCG, BCG, 168 h; for MIC50: read-out: MIC50 M. bovis BCG; for MIC90: read-out: MIC90 M. bovis BCG
[5] = test system: IL-1β production by LPS-stimulated RAW 264.7 macrophages; assay: Inhibition of IL-1β production by LPS-stimulated macrophages (ELISA); type: cell-based, murine; details: for IC50: Mus musculus, RAW264.7, 24 h, read-out: IC50 IL-1β; for inhibition of IL-1β: LPS-stimulated RAW 264.7
Experimental: (§1) Murine RAW 264.7 macrophage cell line (American Type Culture Collection, Manassas, VA, USA), was cultured in Dulbecco’s modified Eagle’s medium (DMEM-F12) supplemented with 10% Fetal Bovine Serum (FBS) and gentamicin (50 µg/mL) in 5% CO2 atmosphere at 37 °C. For experiments, the cells were seeded in 96-well plates (1 × 10^5 cells/well) and incubated for 24 h at 37 °C. For macrophage stimulation, the cell cultures were treated with LPS (1 µg/mL) and incubated for additional 24 h in the presence or absence of the chalcone samples (samples 1–41) that were used at concentrations of 100, 20, 4 and 0.8 µg/mL. In some experiments, a nitric oxide (NO) inhibitor, L-NMMA (20 μg/mL), was used as a positive control of NO inhibition, and a non-steroidal anti-inflammatory drug indomethacin, known to inhibit production of prostaglandins, was used as a positive control of PGE2 inhibition.
(§2) The frozen culture supernatants samples were thawed and immediately analyzed using commercially available enzyme-linked immunosorbent assay (ELISA) kits to measure TNF-α, IL-1β (BD Biosciences) and PGE2 (R&D Systems, Minneapolis, MN, USA), according to the manufacturer’s instructions. Standard curves for each mediator were generated using reference cytokine concentrations supplied by the manufacturer. Nitric oxide (NO) generation was assessed by the Griess method to measure nitrites, which are stable breakdown NO products.

[6] = test system: PGE2 production by LPS-stimulated RAW 264.7 macrophages; assay: Inhibition of PGE2 production by LPS-stimulated macrophages (ELISA); type: cell-based, murine; details: Mus musculus, RAW264.7, 24 h, read-out: IC50 PGE2
Experimental: as §1, §2

[7] = test system: M. tuberculosis H37Rv; assay: microbe, parasite or virus in culture; type: cell-based, Mycobacterium tuberculosis; details: Mycobacterium tuberculosis
[8] = test system: M. tuberculosis M299; assay: microbe, parasite or virus in culture; type: cell-based, Mycobacterium tuberculosis; details: for MIC50 / MIC90: Mycobacterium tuberculosis, M299, 120 h
[9] = test system: M. tuberculosis strain H37Rv in RAW 264.7 macrophages; assay: Intracellular growth of M. tuberculosis H37Rv in infected macrophages (CFU); type: cell-based, Mycobacterium tuberculosis; details: Mycobacterium tuberculosis, H37RV, 96 h, infected RAW 264.7, MOI 1:1, 4 days, Figure 3C
Experimental: (§3) RAW 264.7 macrophages were plated (1 × 10^5 cells/well) in antibiotic-free DMEM-F12 medium supplemented with 10% fetal bovine serum and incubated for 24 h. Prior to infection, mycobacterial suspensions were sonicated for 1 minute to disperse clumps and optical densities were adjusted to 0.1. The macrophage cultures were infected at a MOI of 1:1 (macrophage: bacterium). Phagocytosis was allowed to progress for 3 h. After 3 h, extracellular mycobacteria were removed by washing with PBS 1X and the infected cell monolayers were treated for 4 days with chalcone samples or rifampicin. Macrophage viability was monitored by LDH assay and was over 80% in all experiments. On day 4 after infection, cells were lysed cells with 1% saponin to release intracellular bacteria. Lysate aliquots were diluted 10-fold in PBS, plated in triplicates on 7H10 agar plates and incubated at 37 °C. After 21 days, total CFU were determined.

[10] = test system: RAW 264.7 macrophages infected with M. tuberculosis H37Rv; assay: Toxicity for infected macrophages, LDH assay; type: cell-based, murine; details: Mus musculus, RAW264.7, 96 h; infected RAW 264.7, 4 days treatment; Figure 3D
Experimental: Cytotoxic effects of chalcone samples on RAW 264.7 cell viability in cultures stimulated with LPS were determined using the LDH (lactate dehydrogenase) release assay as previously described. Cytoplasmic enzyme LDH release into cell culture supernatants was detected using a commercial LDH kit (Doles, GO, Brazil). Cell death was expressed as percentage of LDH release, which was calculated using the following formula: percentage of LDH release = 100 × (test LDH release − spontaneous release)/(maximum release − spontaneous release). The maximum release was determined following dissolution of cell monolayers using 1% (vol/vol) Triton X-100. The spontaneous release was determined in supernatants from cultures incubated in the presence of LPS and DMSO, used as a solvent for chalcone samples.
as §3

[11] = Mus musculus, RAW264.7, 24 h, read-out: IC50 NO, LPS (1 µg/mL)-stimulated RAW 264.7, 24 h
[12] = H37RV, 120 h, read-out: MIC50 M. tuberculosis H37Rv
[13] = Table 5, same values as M. tuberculosis H37Rv in Table 3, read-out: MIC50
[14] = LPS (1 µg/mL)-stimulated RAW 264.7, 24 h, read-out: IC50 NO
[15] = RAW264.7, LPS (1 µg/mL)-stimulated RAW 264.7, 24 h, mean ± SD, n = 3
[16] = Mus musculus, RAW264.7, 24 h, LPS (1 µg/mL)-stimulated RAW 264.7, 24 h, read-out: IC50 NO

Structure (SMILES)	IC50 [1, 11] [µM]	IC50 [3] [µM]	MIC50 [4] [µM]	MIC90 [4] [µM]	IC50 [5] [µM]	IC50 [6] [µM]	MIC90 ([7]; H37RV, 120 h) [µM]	MIC50 [7, 12] [µM]	MIC50 [7, 13] [µM]	MIC50 [8] [µM]	MIC90 [8] [µM]	MIC50 [9] [µM]	IC50 [10] [µM]	IC50 [1, 14] [µM]	IC50 [2, 15] [µM]	IC50 [1, 16] [µM]	other results
O=C(/C=C/c1ccccc1Cl)c1ccc(Br)cc1 [Chalcone 15]	36.7	256 ± 3.8	13.8 ± 4.4 (≈ 4.44 µg/mL)	265 ± 4.5 (≈ 85.3 µg/mL)	> 311	32.8 ± 3.7	288 ± 5.5 (≈ 92.6 µg/mL)	17.1 ± 3.8 (≈ 5.5 µg/mL)	17.1 ± 3.8 (≈ 5.5 µg/mL)	> 311	> 311	242 ± 4.4 (≈ 77.9 µg/mL)	214 ± 2.5				IC50 ([2]; RAW264.7, 24 h): > 311 µM; activity against M299 compared with H37Rv [8]: significantly less potent
COc1ccc(C(=O)/C=C/c2ccccc2)cc1 [Chalcone 24]	< 21	245 ± 4.5	31.5 ± 5.9 (≈ 7.51 µg/mL)	399 ± 6.9 (≈ 95.1 µg/mL)	56.6 ± 3.5	90 ± 3.4	375 ± 6.8 (≈ 89.3 µg/mL)	25.3 ± 5.2 (≈ 6.03 µg/mL)	25.3 ± 5.2 (≈ 6.03 µg/mL)	> 420	> 420	42.6 ± 3.1 (≈ 10.2 µg/mL)	319 ± 4.6	21.3 ± 4.5	78.8 ± 6.5		inhibition of TNF-α [2]: strongly inhibit; inhibition of IL-1β [5]: potent inhibitors; activity against M299 compared with H37Rv [8]: significantly less potent
COc1ccc(C(=O)/C=C/c2ccc([N+](=O)[O-])cc2)cc1 [Chalcone 40]	< 21	> 353	14.5 ± 3.1 (≈ 4.11 µg/mL)	> 353	> 353	> 413	352 ± 5.9 (≈ 99.7 µg/mL)	131.7 ± 1.3 (≈ 37.3 µg/mL)	131.7 ± 1.3 (≈ 37.3 µg/mL)					13.5 ± 5.5	> 353		
COc1ccc(C(=O)/C=C/c2ccc(F)cc2)cc1 [Chalcone 25]		> 390	15.8 ± 5.2 (≈ 4.05 µg/mL)	228 ± 5.8 (≈ 58.5 µg/mL)	> 390	57.5 ± 2.1	366.1 ± 3.6 (≈ 93.8 µg/mL)	25.1 ± 5.2 (≈ 6.43 µg/mL)	25.1 ± 5.2 (≈ 6.43 µg/mL)	18.5 ± 3.6 (≈ 4.74 µg/mL)	366.9 ± 0.3 (≈ 94 µg/mL)	49.1 ± 1.7 (≈ 12.6 µg/mL)	264 ± 4.4		> 390	41.2 ± 4.6	
O=C(/C=C/c1ccc([N+](=O)[O-])cc1)c1ccccc1Cl [Chalcone 41]	< 21	> 348	30.5 ± 4.7 (≈ 8.77 µg/mL)	247 ± 7.2 (≈ 71 µg/mL)	13.5 ± 3.9	67.4 ± 2.2	275 ± 6.7 (≈ 79.2 µg/mL)	82.1 ± 4.3 (≈ 23.6 µg/mL)	82.1 ± 4.3 (≈ 23.6 µg/mL)					11.2 ± 5	68.5 ± 3.3		inhibition of TNF-α [2]: strongly inhibit; inhibition of IL-1β [5]: potent inhibitors
CO[C@H]1/C=C/O[C@@]2(C)Oc3c(C)c(O)c4c(O)c(c(/C=N/N5CCN(C)CC5)c(O)c4c3C2=O)NC(=O)/C(C)=C\C=C\[C@H](C)[C@H](O)[C@@H](C)[C@@H](O)[C@@H](C)[C@H](OC(C)=O)[C@@H]1C [Rifampicin, rifampicin, reference compound]			0.01 ± 0.03 (≈ 0.00823 µg/mL)	0.2 ± 0.01 (≈ 0.165 µg/mL)			0.15 ± 0.08 (≈ 0.123 µg/mL)	0.11 ± 0.02 (≈ 0.0905 µg/mL)		0.2 ± 0.18 (≈ 0.165 µg/mL)	3.3 ± 0.16 (≈ 2.72 µg/mL)						
O=C(/C=C/c1ccccc1)c1ccc(Br)cc1 [Chalcone 8]		191 ± 5.2	13.4 ± 4 (≈ 3.85 µg/mL)	33.7 ± 4.6 (≈ 9.68 µg/mL)			326 ± 3.3 (≈ 93.6 µg/mL)	10.5 ± 3.8 (≈ 3.02 µg/mL)	10.5 ± 3.8 (≈ 3.02 µg/mL)	10.2 ± 4.9 (≈ 2.93 µg/mL)	344.7 ± 0.4 (≈ 99 µg/mL)	13.5 ± 0.6 (≈ 3.88 µg/mL)	66.1 ± 1.5		66.9 ± 4.5	46.4 ± 2.3	MIC90 M. bovis BCG ([4]; culture, 7 days, MTT): 33.7 ± 4.6 µM (≈ 9.68 µg/mL)
O=C(/C=C/c1ccc(F)cc1)c1ccc(Br)cc1 [Chalcone 9]		> 328	35.8 ± 3.9 (≈ 10.9 µg/mL)	309 ± 5.3 (≈ 94.2 µg/mL)			252 ± 2.7 (≈ 76.9 µg/mL)	24.4 ± 4.5 (≈ 7.45 µg/mL)	24.4 ± 4.5 (≈ 7.45 µg/mL)	53.6 ± 1.9 (≈ 16.3 µg/mL)	313 ± 1.4 (≈ 95.5 µg/mL)	12 ± 1.1 (≈ 3.66 µg/mL)	> 321		> 328	> 328	
Cc1ccc(C(=O)/C=C/c2ccc(F)cc2)cc1 [Chalcone 17]		290 ± 4.3	61.5 ± 7.6 (≈ 14.8 µg/mL)	388 ± 7.3 (≈ 93.3 µg/mL)	> 416	> 417	> 416	63.8 ± 6.2 (≈ 15.3 µg/mL)	63.8 ± 6.2 (≈ 15.3 µg/mL)						> 416	30.8 ± 4.5	
